Assay results taken from patent publication US20260256792A1, “TREATMENT OF CHRONIC SPONTANEOUS URTICARIA BY ADMINISTERING (R)-2-[3-[4-AMINO-3-(2-FLUORO-4-PHENOXY-PHENYL)PYRAZOLO[3,4-D]PYRIMIDIN-1-YL]PIPERIDINE-1-CARBONYL]-4-METHYL-4-[4-(OXETAN-3-YL)PIPERAZIN-1-YL]PENT-2-ENENITRILE” (priority 2023, published 2026).

Tested on: moderate-to-severe chronic spontaneous urticaria (CSU)
Assay: Phase 2 CSU study: itch severity score over 7 days (ISS7)
Format: in vivo, human
Conditions: Omalizumab-Naïve
Text: The study comprises a 12 week, randomized, double-blind, placebo-controlled, multi-center, dose-ranging efficacy and safety phase, followed by a 40 week open label extension (OLE) phase (see FIG. 1). The study consists of three phases and an optional OLE phase. […] Clinically, CSU is characterized by the spontaneous and recurrent appearance of pruritic hives. The proposed primary endpoints were the UAS7 at Week 12 in EU and EU reference countries and the ISS7 in the US. Regardless of where a participant was from, all assessments were the same. The UAS7 score is a composite score containing both the HSS7 and the ISS7. This allowed a global assessment of the two key components of urticaria: hives and itch. […] The UAS is a validated PRO measure. […] The daily UAS scores range from 0 to 6 point/day. […] Patients were to complete the UAS using the e-diary. […] The following secondary endpoints were to be analyzed using the same approach as for the primary endpoint: • Change from baseline in UAS7 at Week 4 • Change from baseline in UAS7 at Week 12 (for US and US reference countries) • Change from baseline in ISS7 at Week 12 (except US and US reference countries) • Change from baseline in HSS7 at Week 12

SMILES: CC(C)(C=C(C#N)C(=O)N1CCC[C@@H](n2nc(-c3ccc(Oc4ccccc4)cc3F)c3c(N)ncnc32)C1)N1CCN(C2COC2)CC1 [rilzabrutinib, (R)-2-[3-[4-amino-3-(2-fluoro-4-phenoxy-phenyl)pyrazolo[3,4-d]pyrimidin-1-yl]piperidine-1-carbonyl]-4-methyl-4-[4-(oxetan-3-yl)piperazin-1-yl]pent-2-enenitrile]
- ISS7 Post-baseline Mean (SD) (outlier removed, 400 mg TID, Week 1): 9.79 (5.47)
- ISS7 Post-baseline Mean (SD) (outlier removed, 400 mg TID, Week 2): 8.59 (5.80)
- ISS7 Post-baseline Mean (SD) (outlier removed, 400 mg TID, Week 3): 8.18 (5.41)
- ISS7 Post-baseline Mean (SD) (outlier removed, 400 mg TID, Week 4): 7.79 (5.03)
- ISS7 Post-baseline Mean (SD) (outlier removed, 400 mg TID, Week 5): 6.92 (5.87)
- ISS7 Post-baseline Mean (SD) (outlier removed, 400 mg TID, Week 6): 7.32 (6.05)
- ISS7 Post-baseline Mean (SD) (outlier removed, 400 mg TID, Week 7): 7.14 (5.35)
- ISS7 Post-baseline Mean (SD) (outlier removed, 400 mg TID, Week 8): 7.24 (5.51)
- ISS7 Post-baseline Mean (SD) (outlier removed, 400 mg TID, Week 9): 6.68 (5.31)
- ISS7 Post-baseline Mean (SD) (outlier removed, 400 mg TID, Week 10): 6.75 (5.25)
- ISS7 Post-baseline Mean (SD) (outlier removed, 400 mg TID, Week 11): 6.99 (5.53)
- ISS7 Post-baseline Mean (SD) (outlier removed, 400 mg TID, Week 12): 5.77 (5.26)
- ISS7 % Change difference for rilzabrutinib vs. placebo LS Mean (95% CI) (400 mg BID, Week 1): −23.80 (−38.99, −8.60) %
- ISS7 % Change from baseline LS Mean (SE) (400 mg BID, Week 1): −33.92 (5.73) %
- ISS7 Change difference for rilzabrutinib vs. placebo LS Mean (95% CI) (400 mg BID, Week 1): −3.14
- ISS7 Change from baseline LS Mean (SE) (400 mg BID, Week 1): −5.06 (0.83)
- ISS7 % Change difference for rilzabrutinib vs. placebo LS Mean (95% CI) (400 mg BID, Week 2): −17.28 (−32.06, −2.50) %
- ISS7 % Change from baseline LS Mean (SE) (400 mg BID, Week 2): −35.92 (5.58) %
- ISS7 Change difference for rilzabrutinib vs. placebo LS Mean (95% CI) (400 mg BID, Week 2): −2.26
- ISS7 Change from baseline LS Mean (SE) (400 mg BID, Week 2): −5.49 (0.83)
- ISS7 Post-baseline Mean (SD) (400 mg BID, Week 2): 10.32 (5.64)
- ISS7 % Change difference for rilzabrutinib vs. placebo LS Mean (95% CI) (400 mg BID, Week 3): −20.30 (−35.19, −5.41) %
- ISS7 % Change from baseline LS Mean (SE) (400 mg BID, Week 3): −40.91 (5.60) %
- ISS7 Change difference for rilzabrutinib vs. placebo LS Mean (95% CI) (400 mg BID, Week 3): −2.82
- ISS7 Change from baseline LS Mean (SE) (400 mg BID, Week 3): −6.52 (0.87)
- ISS7 Post-baseline Mean (SD) (400 mg BID, Week 3): 9.16 (6.09)
- ISS7 % Change difference for rilzabrutinib vs. placebo LS Mean (95% CI) (400 mg BID, Week 4): −20.53 (−36.37, −4.69) %
- ISS7 % Change from baseline LS Mean (SE) (400 mg BID, Week 4): −43.47 (5.96) %
- ISS7 Change difference for rilzabrutinib vs. placebo LS Mean (95% CI) (400 mg BID, Week 4): −2.86
- ISS7 Change from baseline LS Mean (SE) (400 mg BID, Week 4): −6.96 (0.93)
- ISS7 Post-baseline Mean (SD) (400 mg BID, Week 4): 8.32 (6.02)
- ISS7 Post-baseline Mean (SD) (400 mg BID, Week 5): 8.88 (6.81)
- ISS7 Post-baseline Mean (SD) (400 mg BID, Week 6): 8.85 (6.40)
- ISS7 Post-baseline Mean (SD) (400 mg BID, Week 7): 8.21 (6.16)
- ISS7 Post-baseline Mean (SD) (400 mg BID, Week 8): 7.33 (6.55)
- ISS7 Post-baseline Mean (SD) (400 mg BID, Week 9): 7.63 (7.11)
- ISS7 Post-baseline Mean (SD) (400 mg BID, Week 10): 8.17 (7.29)
- ISS7 Post-baseline Mean (SD) (400 mg BID, Week 11): 7.93 (6.94)
- ISS7 % Change difference for rilzabrutinib vs. placebo LS Mean (95% CI) (400 mg BID, Week 12): −14.10 (−32.26, 4.06) %
- ISS7 % Change from baseline LS Mean (SE) (400 mg BID, Week 12): −48.31 (6.75) %
- ISS7 Change difference for rilzabrutinib vs. placebo LS Mean (95% CI) (400 mg BID, Week 12): −1.96
- ISS7 Change from baseline LS Mean (SE) (400 mg BID, Week 12): −7.73 (1.06)
- ISS7 Post-baseline Mean (SD) (400 mg BID, Week 12): 8.09 (6.95)
- ISS7 % Change difference for rilzabrutinib vs. placebo LS Mean (95% CI) (400 mg QPM, Week 1): −8.25 (−23.30, 6.80) %
- ISS7 % Change from baseline LS Mean (SE) (400 mg QPM, Week 1): −18.38 (5.55) %
- ISS7 Change difference for rilzabrutinib vs. placebo LS Mean (95% CI) (400 mg QPM, Week 1): −1.33
- ISS7 Change from baseline LS Mean (SE) (400 mg QPM, Week 1): −3.25 (0.80)
- ISS7 Post-baseline Mean (SD) (400 mg QPM, Week 1): 13.08 (4.52)
- ISS7 % Change difference for rilzabrutinib vs. placebo LS Mean (95% CI) (400 mg QPM, Week 2): −5.32 (−19.96, 9.32) %
- ISS7 % Change from baseline LS Mean (SE) (400 mg QPM, Week 2): −23.96 (5.37) %
- ISS7 Change difference for rilzabrutinib vs. placebo LS Mean (95% CI) (400 mg QPM, Week 2): −0.76
- ISS7 Change from baseline LS Mean (SE) (400 mg QPM, Week 2): −3.99 (0.80)
- ISS7 % Change difference for rilzabrutinib vs. placebo LS Mean (95% CI) (400 mg QPM, Week 3): −8.38 (−23.14, 6.38) %
- ISS7 % Change from baseline LS Mean (SE) (400 mg QPM, Week 3): −28.99 (5.42) %
- ISS7 Change difference for rilzabrutinib vs. placebo LS Mean (95% CI) (400 mg QPM, Week 3): −1.12
- ISS7 Change from baseline LS Mean (SE) (400 mg QPM, Week 3): −4.82 (0.85)
- ISS7 Post-baseline Mean (SD) (400 mg QPM, Week 3): 11.60 (4.68)
- ISS7 % Change difference for rilzabrutinib vs. placebo LS Mean (95% CI) (400 mg QPM, Week 4): −7.02 (−22.76, 8.71) %
- ISS7 % Change from baseline LS Mean (SE) (400 mg QPM, Week 4): −29.97 (5.75) %
- ISS7 Change difference for rilzabrutinib vs. placebo LS Mean (95% CI) (400 mg QPM, Week 4): −0.93
- ISS7 Change from baseline LS Mean (SE) (400 mg QPM, Week 4): −5.03 (0.89)
- ISS7 Post-baseline Mean (SD) (400 mg QPM, Week 4): 11.39 (4.79)
- ISS7 Post-baseline Mean (SD) (400 mg QPM, Week 5): 11.00 (4.68)
- ISS7 Post-baseline Mean (SD) (400 mg QPM, Week 6): 10.27 (5.26)
- ISS7 Post-baseline Mean (SD) (400 mg QPM, Week 7): 10.68 (5.34)
- ISS7 Post-baseline Mean (SD) (400 mg QPM, Week 8): 10.72 (5.26)
- ISS7 Post-baseline Mean (SD) (400 mg QPM, Week 10): 10.43 (5.30)
- ISS7 Post-baseline Mean (SD) (400 mg QPM, Week 11): 11.03 (5.55)
- ISS7 % Change difference for rilzabrutinib vs. placebo LS Mean (95% CI) (400 mg QPM, Week 12): −0.54 (−18.55, 17.47) %
- ISS7 % Change from baseline LS Mean (SE) (400 mg QPM, Week 12): −34.75 (6.64) %
- ISS7 Change difference for rilzabrutinib vs. placebo LS Mean (95% CI) (400 mg QPM, Week 12): 0.58
- ISS7 Change from baseline LS Mean (SE) (400 mg QPM, Week 12): −5.19 (1.02)
- ISS7 % Change from baseline LS Mean (SE) (400 mg TID, Week 1): −37.45 (5.78) %
- ISS7 Change difference for rilzabrutinib vs. placebo LS Mean (95% CI) (400 mg TID, Week 1): −4.21
- ISS7 Change from baseline LS Mean (SE) (400 mg TID, Week 1): −6.13 (0.82)
- ISS7 Post-baseline Mean (SD) (400 mg TID, Week 1): 9.51 (5.64)
- ISS7 % Change difference for rilzabrutinib vs. placebo LS Mean (95% CI) (400 mg TID, Week 2): −27.63 (−42.70, −12.56) %
- ISS7 % Change from baseline LS Mean (SE) (400 mg TID, Week 2): −46.27 (5.61) %
- ISS7 Change difference for rilzabrutinib vs. placebo LS Mean (95% CI) (400 mg TID, Week 2): −4.14
- ISS7 Change from baseline LS Mean (SE) (400 mg TID, Week 2): −7.37 (0.82)
- ISS7 Post-baseline Mean (SD) (400 mg TID, Week 2): 8.40 (5.82)
- ISS7 % Change difference for rilzabrutinib vs. placebo LS Mean (95% CI) (400 mg TID, Week 3): −27.20 (−42.33, −12.08) %
- ISS7 % Change from baseline LS Mean (SE) (400 mg TID, Week 3): −47.81 (5.64) %
- ISS7 Change difference for rilzabrutinib vs. placebo LS Mean (95% CI) (400 mg TID, Week 3): −3.58
- ISS7 Change from baseline LS Mean (SE) (400 mg TID, Week 3): −7.29 (0.87)
- ISS7 Post-baseline Mean (SD) (400 mg TID, Week 3): 8.34 (5.42)
- ISS7 % Change difference for rilzabrutinib vs. placebo LS Mean (95% CI) (400 mg TID, Week 4): −24.55 (−40.74, −8.36) %
- ISS7 % Change from baseline LS Mean (SE) (400 mg TID, Week 4): −47.50 (6.02) %
- ISS7 Change difference for rilzabrutinib vs. placebo LS Mean (95% CI) (400 mg TID, Week 4): −3.23
- ISS7 Change from baseline LS Mean (SE) (400 mg TID, Week 4): −7.33 (0.92)
- ISS7 Post-baseline Mean (SD) (400 mg TID, Week 4): 7.79 (5.03)
